The values below come from US12391737B2, “Soluble NPY2 receptor agonists” (Boehringer Ingelheim International GmbH, priority 2020, dated 2025).

Series [1] addresses T1, Human Neuropeptide Y2 Receptor (Homo sapiens, UniProt P49146).
T1 construct: purchased CHEMICON HTS066M
T1 sequence (P49146 1-381): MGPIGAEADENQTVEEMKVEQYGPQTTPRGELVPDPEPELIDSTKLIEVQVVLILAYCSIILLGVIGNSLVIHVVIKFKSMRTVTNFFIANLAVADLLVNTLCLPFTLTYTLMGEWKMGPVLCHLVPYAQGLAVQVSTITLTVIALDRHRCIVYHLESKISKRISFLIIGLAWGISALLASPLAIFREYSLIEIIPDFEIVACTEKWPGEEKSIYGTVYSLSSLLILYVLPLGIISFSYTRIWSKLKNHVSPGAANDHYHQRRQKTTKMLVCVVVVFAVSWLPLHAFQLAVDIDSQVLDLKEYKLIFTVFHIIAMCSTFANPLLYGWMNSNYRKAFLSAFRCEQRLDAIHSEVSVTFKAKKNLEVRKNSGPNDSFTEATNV
Description: Radioligand binding competition assay (RLB). Particulars: Table 3, 125I-PYY(1-36) competition; read-out: Ki. Summed up: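 Competition binding used membranes expressing the receptor (0.5 μg protein/well) in 50 mM HEPES, 5 mM MgCl2, 1 mM CaCl2, pH 7.4 with 0.2% ovalbumin, incubated 2 h at room temperature with shaking. Bound radioligand was collected by filtration onto PEI-soaked GF/C filters and counted; IC50 from nonlinear sigmoidal fits.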

A short description of a further series: Solubility determination. Particulars: for Sol6: pH 6; for Sol7: pH 7. Put shortly: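 Solubility is derived from the ratio of reversed-phase peak areas, filtered sample over a control dissolved at 1 mg/ml in 50% acetonitrile. Peptides are agitated for 2 hours at room temperature in 0.1 M sodium diphosphate at pH 6.4 or 7.0, aiming at 10 mg/ml.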

pKi: −log10 of the molar value. *1 amine or outer side, *2 acyl side, *3 side chain or, on linkers, in order; H or OH if unused. Where a SMILES comes first, the peptide text is derived from it. Side-chain parts run from the residue outwards. The star is where a group is joined. C18 diacid = O=C(O)CCCCCCCCCCCCCCCCC(=O)*; γGlu = O=C(O)[C@H](CCC(=O)[*:2])N[*:1]; Isovaleryl = CC(C)CC(=O)*; Ahx = NCCCCCC(=O)O Bounds are passed on as bounds.

On to `CC(C)CC(=O)N[C@@H](C)C(=O)N1CCC[C@H]1C(=O)N[C@@H](C)C(=O)N[C@@H](CCCCNC(=O)CCCCCNC(=O)CC[C@H](NC(=O)CCCCCCCCCCCCCCCCC(=O)O)C(=O)O)C(=O)N1CCC[C@H]1C(=O)N1CCC[C@H]1C(=O)N[C@@H](CCC(=O)O)C(=O)N[C@@H](CC(=O)O)C(=O)N[C@@H](C)C(=O)N[C@@H](CO)C(=O)N1CCC[C@H]1C(=O)N[C@@H](CCC(=O)O)C(=O)N[C@@H](CCC(=O)O)C(=O)N[C@@H](CC(C)C)C(=O)N[C@@H](CCC(N)=O)C(=O)N[C@@H](CCCNC(=N)N)C(=O)N[C@@H](Cc1ccc(O)cc1)C(=O)N[C@@H](Cc1ccc(O)cc1)C(=O)N[C@H](C(=O)N[C@@H](CCC(=O)O)C(=O)N[C@@H](CC(C)C)C(=O)N[C@@H](CCCNC(=N)N)C(=O)N[C@@H](Cc1c[nH]cn1)C(=O)N[C@@H](Cc1ccc(O)cc1)C(=O)N[C@@H](Cc1ccc(O)cc1)C(=O)N[C@@H](CC(N)=O)C(=O)N[C@@H](Cc1c[nH]c2ccccc12)C(=O)N[C@@H](CC(C)C)C(=O)N[C@H](C(=O)N[C@@H](CCCNC(=N)N)C(=O)N[C@@H](CCC(N)=O)C(=O)N[C@@H](CCCNC(=N)N)C(=O)N[C@@H](Cc1ccc(O)cc1)C(N)=O)[C@@H](C)O)C(C)C` [Compound 62, N{alpha-4}-(3-methylbutanoyl)-N{epsilon-7}-(6-[(4S)-4-carboxy-4-(17-carboxyheptadecanamido)butanamido]hexanoyl)-[4A,6A,7K,9P,18Q,22V,23E,28Y,30W,31L]-hPYY(4-36)], for which the pKi (as a rule, the negative decadic logarithm of the Ki, by convention in mol/L) in series [1] is 8.84. In “Solubility determination”, the “Sol6” value stood at 8.8 mg/mL and the “Sol7” value is 9.3 mg/mL.
Taken in the same sequence, the figures for `CC(C)CC(=O)N[C@@H](C)C(=O)N1CCC[C@H]1C(=O)N[C@@H](CCC(=O)O)C(=O)N[C@@H](CCCCNC(=O)CCCCCNC(=O)CC[C@H](NC(=O)CCCCCCCCCCCCCCCCC(=O)O)C(=O)O)C(=O)N1CCC[C@H]1C(=O)N[C@@H](CCC(=O)O)C(=O)N[C@@H](CCC(=O)O)C(=O)N[C@@H](CC(=O)O)C(=O)N[C@@H](C)C(=O)N[C@H](C(=O)N1CCC[C@H]1C(=O)N[C@@H](CCC(=O)O)C(=O)N[C@@H](CCC(=O)O)C(=O)N[C@@H](CC(C)C)C(=O)N[C@@H](CCC(N)=O)C(=O)N[C@@H](CCCNC(=N)N)C(=O)N[C@@H](Cc1ccc(O)cc1)C(=O)N[C@@H](Cc1ccc(O)cc1)C(=O)N[C@H](C(=O)N[C@@H](CO)C(=O)N[C@@H](CC(C)C)C(=O)N[C@@H](CCCNC(=N)N)C(=O)N[C@@H](Cc1c[nH]cn1)C(=O)N[C@@H](Cc1ccc(O)cc1)C(=O)N[C@@H](Cc1ccc(O)cc1)C(=O)N[C@@H](CC(N)=O)C(=O)N[C@@H](Cc1c[nH]c2ccccc12)C(=O)N[C@@H](CC(C)C)C(=O)N[C@@H](CC(C)C)C(=O)N[C@@H](CCCNC(=N)N)C(=O)N[C@@H](CCC(N)=O)C(=O)N[C@@H](CCCNC(=N)N)C(=O)N[C@@H](Cc1ccc(O)cc1)C(N)=O)C(C)C)[C@@H](C)O` [Compound 137, N{alpha-4}-(3-methylbutanoyl)-N{epsilon-7}-(6-[(4S)-4-carboxy-4-(17-carboxyheptadecanamido)butanamido]hexanoyl)-[4A,7K,9E,13T,18Q,22V,28Y,30W,31L,32L]-hPYY(4-36)] were 7.30, over 10.0 mg/mL and over 10.0 mg/mL.
Taken in the same sequence, the figures for `CC(C)CC(=O)N[C@@H](C)C(=O)N1CCC[C@H]1C(=O)N[C@@H](CCC(=O)O)C(=O)N[C@@H](CCCCNC(=O)CCCCCNC(=O)CC[C@H](NC(=O)CCCCCCCCCCCCCCCCC(=O)O)C(=O)O)C(=O)N1CCC[C@H]1C(=O)N[C@@H](CCC(=O)O)C(=O)N[C@@H](C)C(=O)N1CCC[C@H]1C(=O)N[C@@H](C)C(=O)N[C@@H](CO)C(=O)N1CCC[C@H]1C(=O)N[C@@H](CCC(=O)O)C(=O)N[C@@H](CCC(=O)O)C(=O)N[C@@H](CC(C)C)C(=O)N[C@@H](CCC(N)=O)C(=O)N[C@@H](CCCNC(=N)N)C(=O)N[C@@H](Cc1ccc(O)cc1)C(=O)N[C@@H](Cc1ccc(O)cc1)C(=O)N[C@H](C(=O)N[C@@H](CO)C(=O)N[C@@H](CC(C)C)C(=O)N[C@@H](CCCNC(=N)N)C(=O)N[C@@H](Cc1c[nH]cn1)C(=O)N[C@@H](Cc1ccc(O)cc1)C(=O)N[C@@H](Cc1ccc(O)cc1)C(=O)N[C@@H](CC(N)=O)C(=O)N[C@@H](Cc1c[nH]c2ccccc12)C(=O)N[C@@H](CC(C)C)C(=O)N[C@H](C(=O)N[C@@H](CCCNC(=N)N)C(=O)N[C@@H](CCC(N)=O)C(=O)N[C@@H](CCCNC(=N)N)C(=O)N[C@@H](Cc1ccc(O)cc1)C(N)=O)[C@@H](C)O)C(C)C` [Compound 192, N{alpha-4}-(3-methylbutanoyl)-N{epsilon-7}-(6-[(4S)-4-carboxy-4-(17-carboxyheptadecanamido)butanamido]hexanoyl)-[4A,7K,9E,10A,11P,18Q,22V,28Y,30W,31L]-hPYY(4-36)] (Isovaleryl-APEK([Ahx-γGlu-C18 diacid])PEAPASPEELQRYYVSLRHYYNWLTRQRY-NH2) were 9.13, 0.0 mg/mL and 9.0 mg/mL.
Taken in the same sequence, the figures for `CC[C@H](C)[C@H](NC(=O)[C@H](CCC(=O)O)NC(=O)[C@H](CCC(=O)O)NC(=O)[C@@H]1CCCN1C(=O)[C@@H](NC(=O)[C@H](C)NC(=O)[C@H](CC(=O)O)NC(=O)[C@H](CCC(=O)O)NC(=O)[C@H](CCC(=O)O)NC(=O)[C@@H]1CCCN1C(=O)[C@H](CCCCNC(=O)CCCCCNC(=O)CC[C@H](NC(=O)CCCCCCCCCCCCCCCCC(=O)O)C(=O)O)NC(=O)[C@H](CCC(=O)O)NC(=O)[C@@H]1CCCN1C(=O)[C@H](C)NC(=O)CC(C)C)[C@@H](C)O)C(=O)N[C@@H](CCC(N)=O)C(=O)N[C@@H](CCCNC(=N)N)C(=O)N[C@@H](Cc1ccc(O)cc1)C(=O)N[C@@H](Cc1ccc(O)cc1)C(=O)N1CCC[C@H]1C(=O)N[C@@H](CO)C(=O)N[C@@H](CC(C)C)C(=O)N[C@@H](CCCNC(=N)N)C(=O)N[C@@H](Cc1c[nH]cn1)C(=O)N[C@@H](Cc1ccc(O)cc1)C(=O)N[C@@H](Cc1ccc(O)cc1)C(=O)N[C@@H](CC(N)=O)C(=O)N[C@@H](Cc1c[nH]c2ccccc12)C(=O)N[C@@H](CC(C)C)C(=O)N[C@H](C(=O)N[C@@H](CCCNC(=N)N)C(=O)N[C@@H](CCC(N)=O)C(=O)N[C@@H](CCCNC(=N)N)C(=O)N[C@@H](Cc1ccc(O)cc1)C(N)=O)[C@@H](C)O` [Compound 17, N{alpha-4}-(3-methylbutanoyl)-N{epsilon-7}-(6-[(4S)-4-carboxy-4-(17-carboxyheptadecanamido)butanamido]hexanoyl)[4A,7K,9E,13T,17I,18Q,22P,28Y,30W,31L]-hPYY(4-36)] were 7.61, 10.0 mg/mL and 10.0 mg/mL.
`CC(C)CC(=O)N[C@@H](C)C(=O)N1CCC[C@H]1C(=O)N[C@@H](CCC(=O)O)C(=O)N[C@@H](CCCCNC(=O)CCCCCNC(=O)CC[C@H](NC(=O)CCCCCCCCCCCCCCCCC(=O)O)C(=O)O)C(=O)N1CCC[C@H]1C(=O)N[C@@H](CCC(=O)O)C(=O)N[C@@H](CCC(=O)O)C(=O)N[C@@H](CC(=O)O)C(=O)N[C@@H](C)C(=O)N[C@H](C(=O)N1CCC[C@H]1C(=O)N[C@@H](CCC(=O)O)C(=O)N[C@@H](CCC(=O)O)C(=O)N[C@@H](CC(C)C)C(=O)N[C@@H](CCC(N)=O)C(=O)N[C@@H](CCCNC(=N)N)C(=O)N[C@@H](Cc1ccc(O)cc1)C(=O)N[C@@H](Cc1ccc(O)cc1)C(=O)N[C@H](C(=O)N[C@H](C(=O)N[C@@H](CC(C)C)C(=O)N[C@@H](CCCNC(=N)N)C(=O)N[C@@H](Cc1c[nH]cn1)C(=O)N[C@@H](Cc1ccc(O)cc1)C(=O)N[C@@H](Cc1ccc(O)cc1)C(=O)N[C@@H](CC(N)=O)C(=O)N[C@@H](Cc1c[nH]c2ccccc12)C(=O)N[C@@H](CC(C)C)C(=O)N[C@H](C(=O)N[C@@H](CCCNC(=N)N)C(=O)N[C@@H](CCC(N)=O)C(=O)N[C@@H](CCCNC(=N)N)C(=O)N[C@@H](Cc1ccc(O)cc1)C(N)=O)[C@@H](C)O)C(C)C)C(C)C)[C@@H](C)O` [Compound 90, N{alpha-4}-(3-methylbutanoyl)-N{epsilon-7}-(6-[(4S)-4-carboxy-4-(17-carboxyheptadecanamido)butanamido]hexanoyl)-[4A,7K,9E,13T,18Q,22V,23V,28Y,30W,31L]-hPYY(4-36)]: the pKi in series [1] is 8.06. Further, in the series “Solubility determination”, the “Sol6” value came out at 9.6 mg/mL and the “Sol7” value was found to be 10.0 mg/mL.
